Experimental findings from patent US11911719B2, “Devices and methods for the integrated filtration, drying, and mechanical processing of active pharmaceutical ingredients” (Massachusetts Institute of Technology, priority 2019, dated 2024) are described below.

Series [1] is described as follows: Particle size by laser diffraction (Mastersizer 2000, Scirocco 2000 dry dispersion). The format is physicochemical. The protocol: (§1) Particle size analysis by laser diffraction was conducted in a Malvern Mastersizer 2000 using a Scirocco 2000 dry dispersion unit.
Characterization and understanding of the particle and bulk properties of the API, the excipients, and blends were important in the development and manufacturing of pharmaceutical formulations and finished products. Size, shape, bulk density and flow properties of CIPRO, excipients (specifically fillers), and blends were characterized to assist in formulation development. The particle size of CIPRO and excipients were measured in the Scirocco 2000, dry powder dispersion unit of Mastersizer 2000 particle size analyzer (Malvern Instruments Ltd.). CIPRO or excipient was placed in the enclosed vibratory tray of Scirocco 2000. The Scirocco 2000 uses compressed air to transport and suspend the particles of the sample while they pass through the air cell. The vibratory tray of Scirocco 2000 was vibrated to feed the powder at the 50% feed rate setting. The powder was dispersed through the air cell at an air pressure of 2 bar. The Mastersizer 2000 reported volume-weighted particle sizes. The median size of fumed silica CAB-O-SIL® M-5P is about 14 nm.

Series [2] can be described thus: Powder compressibility (FT4 Powder Rheometer). The format is physicochemical. The protocol:
(§2) The bulk density was measured using the conditioned bulk density test, performed before any other test in the FT4. Powder flow property was measured using the shear cell test. The compressibility of the powders under investigation was also measured. Bulk density is an important parameter for determining the amount of powder that can fit in space such as blender, hopper of a tablet press or a tablet die. The shear test yields various powder flow measurements including a flow coefficient. The flow function coefficient (FFC) is used as an indicator of the flowability of a powder and is defined as the ratio of the major principle stress to the unconfined yield strength. The FFC was obtained using a normal stress of 3 kPa. FFC values can be separated into different regimes: FFC<1, not flowing; 1<FFC<2, very cohesive; 2<FFC<4, cohesive; 4<FFC<10, easy flowing, and FFC>10, free-flowing. Powder compressibility was also measured. Compressibility is not a direct measurement of flowability; however a free-flowing powder usually has a low compressibility value. A compressibility value greater than 30% indicates poor powder flow.

The conditions of series [3]: after 140 min of drying, 50° C., 0.5 bar.
A short description of series [4]: Karl Fischer analysis of lattice water. The settings on record: KF analysis of oven dried samples. The format is physicochemical. As for the experimental part: as §1
Furthermore, no significant loss of crystallinity can be observed from the baseline. The lattice water content can be quantified from KF analysis of the off-line oven dried samples collected at different times during the process. […] As expected, the cake contains approximately 19 wt % water at the start of the drying process, coming from the residual wash solvent that contains 20 vol % water (24 wt %), but diluted by the solid API. […] This value is in accordance with the observations from XRPD analysis, with the monohydrate salt of ciprofloxacin HCl having a 4.7 wt % stoichiometric water content. As the drying step progresses, the total water concentration in the cake decreases while the lattice water is maintained constant. With the USP specifications giving a target water content between 4.7 and 6.7 wt %, the obtained drug substance started meeting the specifications after 50 min of drying. This time coincides with the point at which the cake dry matter content was near 100%.

The nature of series [5]: Shear cell test, flow function coefficient (FT4 Powder Rheometer). The format is physicochemical. As for the experimental part: as §2
Where [6] appears, read: processed CIPRO particles, Table 3.
[7] abbreviates: processed CIPRO particles, Table 3, Hydrochloride Monohydrate.
Setting [8] is: Table 2 materials, volume-weighted, dry dispersion 2 bar.

Structures can show the parent of a compound that is named as a salt.

With `O=C(O)c1cn(C2CC2)c2cc(N3CCNCC3)c(F)cc2c1=O` [CIPRO (Commercial, un-processed), Ciprofloxacin Hydrochloride Monohydrate], in series [1] (setting [6]), the “Particle size d10” value was 3.75 μm, the “Particle size d50” value is given as 12.49 μm and the “Particle size d90” value was 439.56 μm. The same compound yielded a Compressibility in series [2] (setting [6]) of 38.9%.

`Cl.O.O=C(O)c1cn(C2CC2)c2cc(N3CCNCC3)c(F)cc2c1=O` [CIPRO (US & Krups Grinder), Ciprofloxacin Hydrochloride Monohydrate]: in series [1] (setting [7]), the “Particle size d10” value worked out at 1.93 μm, the “Particle size d50” value stood at 7.09 μm and the “Particle size d90” value turned out to be 65.36 μm. Further, the Compressibility in series [2] (setting [7]) was 38.8%.

Consider `Cl.O.O=C(O)c1cn(C2CC2)c2cc(N3CCNCC3)c(F)cc2c1=O` [CIPRO (US & Morter-Pastle), Ciprofloxacin Hydrochloride Monohydrate], for which, in series [1] (setting [7]), the “Particle size d10” value was found to be 3.01 μm, the “Particle size d50” value turned out to be 8.67 μm and the “Particle size d90” value stood at 24.02 μm. For the same compound, in series [2] (setting [7]), the Compressibility is given as 43.6%.

`O=C(O)c1cn(C2CC2)c2cc(N3CCNCC3)c(F)cc2c1=O` [Ciprofloxacin HCl (CIPRO), Ciprofloxacin Hydrochloride Monohydrate]: the “Crystal structure after drying (XRPD)” value in series [3] is on record as “retained the original crystal structure”. Also, the “Lattice water content of the crystalline phase” value in series [4] stood at 6.2 wt %.

Turning to Magnesium stearate, in series [5] (Table 2 materials, normal stress of 3 kPa), the “FFC (Flow function coefficient)” value is 5.18. The “Flowability by Schulze classification” value in series [5] (based on FFC) is on record as “flows easily”. Further, in series [1] (setting [8]), the “Particle size d10” value is recorded as 2.76 μm, the “Particle size d50” value was 6.86 μm and the “Particle size d90” value is listed as 15.10 μm. The same compound had a Compressibility in series [2] (Table 2 materials) of 38.97%.

As to `Cl.O.O=C(O)c1cn(C2CC2)c2cc(N3CCNCC3)c(F)cc2c1=O` [CIPRO (w/o US, Grinder designed at MIT), Ciprofloxacin Hydrochloride Monohydrate], in series [1] (setting [7]), the “Particle size d10” value is given as 2.82 μm, the “Particle size d50” value was determined as 14.45 μm and the “Particle size d90” value is listed as 169.73 μm.

On to `Cl.O.O=C(O)c1cn(C2CC2)c2cc(N3CCNCC3)c(F)cc2c1=O` [CIPRO (w/o US, Krups Grinder), Ciprofloxacin Hydrochloride Monohydrate], for which, in series [1] (setting [7]), the “Particle size d10” value is reported as 1.23 μm, the “Particle size d50” value is given as 3.88 μm and the “Particle size d90” value is listed as 33.26 μm. In series [2] (setting [7]), the Compressibility turned out to be 52.6%. This compound also returned a Compressibility in series [2] (processed CIPRO particles, Table 3, listed as CIPRO (w/o use of a Krups Grinder), Hydrochloride Monohydrate) of 52.6%.
